Our source for the melting point values is a melting point compilation (Tetko et al.; mined from patent text by program, amines drawn as free bases though some values may be those of a salt).

The structures appear in SMILES notation.

For the compound `NS(=O)(=O)c1ccc(-n2cc(-c3ccccc3)cc2-c2ccc(F)cc2)cc1`, the melting point (usually the temperature of the solid-liquid transition) was in the range of 192 to 194 °C.

Take `OC1CSC(Oc2cncc(-c3ccc(F)cn3)c2)C(O)C1O` (stereo not drawn): the melting point was in the range of 166 to 190 °C.

In the case of `CC(C)(C(=O)O)c1ccc(O[Si](C)(C)C(C)(C)C)cc1`, the melting point lay in the range of 78 to 80 °C.

`CC(=Cc1ccccc1)c1ccc2c(c1)SC(C)(C)S2` had a melting point of 57 to 58 °C.

Compound `O=[N+]([O-])c1ccc(-c2cccs2)cc1` came in with a melting point of 124 to 126 °C.

In the case of `O=[N+]([O-])c1cnn(-c2c(Cl)cc(C(F)(F)F)cc2Cl)n1`, the melting point is 105 °C.

`OCC(O)Cn1ncc2c(N(Cc3cccc(Cl)c3)C3CCCC3)ncnc21` (stereo not drawn) came in with a melting point of 98 to 100 °C.

`CC(Oc1ccc(S(C)(=O)=O)cc1)c1ccnc2ncnn12` (stereo not drawn) displayed a melting point of 163 to 164 °C.

Turning to `CCC(NC(=S)NCc1ccc(C(C)(C)C)cc1)c1ccc(NS(C)(=O)=O)c(F)c1` (stereo not drawn), the melting point came to 85 °C.

In turn, `N#CNc1ccccc1-c1ccc(F)cc1` had a melting point of 95 to 96 °C.

`CN(c1cccc2cc(-c3ncc(CS(C)(=O)=O)s3)[nH]c12)S(=O)(=O)c1cccs1`: the melting point was 242 to 243 °C.

In the case of `Cc1ccc(S(=O)(=O)n2ccc3c(-c4c(-c5ccc(F)cc5)nc5ccc(N6CCN[C@H](C)C6)nn45)ccnc32)cc1`, the melting point lay within 253 to 256 °C.

Turning to `COC(=O)CSSc1cc(Oc2ccc(C(F)(F)F)cc2Cl)ccc1[N+](=O)[O-]`, the melting point lay in the range of 66 to 68 °C.

`CCOC(=O)C1=C(COCc2nnn(CC(N)=O)n2)NC(C)=C(C(=O)OC)C1c1cccc(Cl)c1Cl` (stereo not drawn) came in with a melting point of 130 to 132 °C.

In turn, `CCCC(=O)c1cc2nc(C=O)n(C)c2cc1C` displayed a melting point of 107 to 108 °C.

Take `CNS(=O)(=O)c1sccc1C(C)=O`: the melting point is 101 to 103 °C.

For `CCCc1c2occc(=O)c2cc2c(=O)c(-c3ccc(C(=O)O)cc3)c(C(=O)O)oc12`, the melting point amounted to 250 °C.

`O=[N+]([O-])c1ccc(Oc2ccc(N3CCN(c4ccncc4)CC3)cc2)nc1` yielded a melting point of 174 to 175 °C.

In turn, `COC(=O)CCC(=O)c1ccc(CCCCCCNC(C)=O)cc1` had a melting point of 87 to 89 °C.

As to `CC(C)(C)OC(=O)CN1C(=O)C(NC(=O)Nc2cccc(Cl)c2)CC(c2ccccc2)CC1Cc1ccccc1` (stereo not drawn), the melting point was 95 to 110 °C.

`CCOC(=O)c1cnoc1-c1ccc(F)c(Cl)c1` returned a melting point of 106 to 107 °C.

`Cc1oc(-c2ccccc2)nc1CCOc1ccc(CCC2SC(=O)NC2=O)cc1` (stereo not drawn) displayed a melting point of 151 to 152 °C.

In turn, `COc1cc2c(cc1OC)CC(=S)N(CCCN(C)C1CCc3cc(OC)c(OC)cc3C1)CC2` (stereo not drawn) displayed a melting point of 70 to 75 °C.

`CN1CCCC1=NC(=O)Nc1ccc(Cl)c(Cl)c1`: the melting point turned out to be 160 °C.

With `CC(C)(C(=O)N1CCc2ccccc2C1)c1ccc(S(=O)(=O)/C=C/C#N)cc1`, the melting point fell in the range of 54 to 60 °C.

Consider `CCc1nnc2ccc(-c3ccc(Cl)cc3)nn12`, for which the melting point is 197 to 199 °C.

As to `Cc1cc(-n2ccnc2)c2cccc(OCc3c(Cl)ccc(S(=O)(=O)N4CCC(CO)CC4)c3Cl)c2n1`, the melting point stood at 100 °C.

With `CN1C2CCC1CN(c1ccc(C#Cc3ccc(NC(=O)c4ccccc4)cc3)nn1)C2`, the melting point fell in the range of 88 to 96 °C.

Compound `O=C(CCCN1CCOCC1)c1ccc2c(c1)Cc1cc(C(=O)CCCN3CCOCC3)ccc1S2` registered a melting point of 90.5 to 91.5 °C.

Compound `Nc1cc(C=O)nc(CC2CC2)c1F` yielded a melting point of 99 to 100 °C.

Compound `CC(=O)C(C(=O)NS(=O)(=O)c1ccc(C)cc1)C(=O)c1ccccc1` (stereo not drawn) yielded a melting point of 114 to 116 °C.

`CCN1CC(NC(=O)c2ccc(OCC=C(C)CCC=C(C)C)cc2)CN1CC`: the melting point was 95.5 to 97 °C.

Take `O=CN[C@H]1CC[C@H](CCN2CCN(c3nccc4c3OCC4)CC2)CC1`: the melting point turned out to be 154 °C.

Compound `CCOC(=O)c1cccc(C(OC(=O)Nc2ccc3[nH]ncc3c2)[C@@H]2CCCCN2)c1` (stereo partly drawn) came in with a melting point of 174 °C.

The compound `CC(=O)Nc1cccc(Nc2ncnc3[nH]cc(C(=O)c4cccc5ccccc45)c23)c1` displayed a melting point above 300 °C.

`CC(C)(C)OC(=O)N1CCN(c2ccc(S(=O)(=O)c3ccccc3)c([N+](=O)[O-])c2)CC1` showed a melting point of 190 to 191 °C.

As to `O=[N+]([O-])c1ccc(CF)cc1`, the melting point fell in the range of 33 to 34 °C.

`OC(c1ccccc1)(c1ccc(C(F)(F)F)cc1)c1ncc[nH]1` (stereo not drawn) returned a melting point of 174 to 176 °C.

Consider `O=CN1CC2Oc3ccccc3OC2C1` (stereo not drawn), for which the melting point lay in the range of 207 to 208 °C.

Regarding `COC(=O)CS(=O)(=O)Nc1ccc(F)cc1C(F)(F)F`, the melting point is 84 to 86 °C.

`CC(C)NC(=O)Cc1cccc(N)c1` returned a melting point of 93 to 95 °C.

Turning to `NS(=O)(=O)c1cc2c(cc1Cl)C(=O)N(CCc1ccccn1)C2=O`, the melting point is 240 to 241 °C.

Turning to `CC(C)(C)c1ccc(CCC(CC2CCCCC2)OC(=O)OCC(=O)O)cc1NC(=O)CC1c2ccccc2Oc2ccccc21` (stereo not drawn), the melting point lay within 143 to 145 °C.

Take `Cc1nc(CCOc2ccc(N)cc2)oc1-c1ccccc1`: the melting point is 106 to 107 °C.

In turn, `Nc1c(Cl)ncnc1N[C@@H]1C=C[C@H](CO)C1` had a melting point of 144 to 146 °C.

In the case of `CC1(C)SCN(CCCCN2CCN(c3n[nH]c4ccccc34)CC2)C1=O`, the melting point is 139 to 142 °C.

`Cc1csc(C(O)(c2nccs2)C(F)(F)F)n1` (stereo not drawn) gave a melting point of 89 to 90 °C.

Compound `CS(=O)(=O)c1cccc(NC(=O)c2cnn3c(C(F)(F)F)cc(-c4ccc(Cl)c(Cl)c4)nc23)c1` gave a melting point of 263 °C.

`NC(=O)NCCn1cc(Cn2ccnc2)c2ccccc21`: the melting point fell in the range of 153 to 154 °C.

Take `Cc1cc(=O)c2c(OCCOc3ccccc3)cccc2o1`: the melting point fell in the range of 142 to 144 °C.

Compound `CN(c1ccc(I)cc1)S(C)(=O)=O` displayed a melting point of 106 to 107 °C.

`CCCCOP(=O)(OCCCC)OCN1C(=O)NC(c2ccccc2)(c2ccccc2)C1=O` gave a melting point of 94.8 to 96.9 °C.

Regarding `CCOC(=O)c1cc(F)c(N2CCCC2)nc1Cl`, the melting point came out at 95 °C.

`O=C(CCl)N1CC=C(c2cccc(C(F)(F)F)c2)n2ncc(Cl)c21` returned a melting point of 116 to 119 °C.

Compound `COc1ccc(C2=CC(N3CCN(Cc4ccccc4)CC3)=NC23C=CC(=O)C=C3)cc1` registered a melting point of 190 °C.

Compound `O=C1C(=C(O)Cc2ccccc2)SC(=S)N1c1ccccc1` came in with a melting point of 146 to 148 °C.

The compound `CCCOc1c(C)cc(Cl)c2c(=O)c3ccccc3sc12` returned a melting point of 101 to 103 °C.

For the compound `Cc1nc(C)c(C(=O)Nc2ccc(-n3nc(C(F)(F)F)cc3C(F)(F)F)cc2)s1`, the melting point fell in the range of 158 to 159 °C.

The compound `CNC(=O)NCC(C)(C)N` came in with a melting point of 150 °C.

In turn, `NCC1C[N+]([O-])=C(c2ccccc2F)c2cc(Cl)ccc2N1` (stereo not drawn) gave a melting point of 144 to 148 °C.

`CC(C)(C)OC(=O)N[C@H]1COc2ccccc2NC1=O` returned a melting point of 202 to 203 °C.

Consider `CCOC(=O)c1cc(NCc2c(C)cccc2C)c2nc(C)n(COCc3ccccc3)c2c1`, for which the melting point was in the range of 155 to 156 °C.

`Cc1nc(N)sc1-c1cccnc1` showed a melting point of 190 to 191 °C.
